Results: patent US20230134859A1, “METHOD FOR SCREENING FOR, METHOD FOR PRODUCING, AND METHOD FOR DESIGNING DRUG ACTIVE INGREDIENTS” (SKY PHARMA CO., LTD., priority 2020, published 2023)

How the values were obtained:
Format in all cases: in vivo
cardiomyocytes = assay: Test Example 8: enhancement of myocardium in zebrafish embryo (nkx2.5 in situ hybridization, blood cells pumped per heartbeat); conditions: test compounds = Compounds 1 to 7; 100 μM injected at heart primordium 10 h after fertilization; vs control; n=80
Protocol: Zebrafish embryos at 10 hours after fertilization were held with the dorsal side of the head up on a coffin (plastic plate with V-shaped grooves for holding), and a glass capillary was inserted into a midline between head and ear vesicles (heart primordium). Nitrogen gas pressure (15 picosiemens) was applied for 15 to 45 milliseconds and injected into the gap just below the neural tube. The test compound concentration was 100 μM/E3, and 0.025% (final concentration) phenol red was mixed as a tracer of the injection solution. The injection was performed in pulses with a foot pedal and continued until phenol red was distributed in an elliptical shape with a major axis of 200 μm from the insertion point. After injection, embryos were cultured at 28.5° C. for 14 hours in E3. After chorions were removed with tweezers, the embryos were fixed with 4% paraformaldehyde/PBS at normal temperature for 1 hour, and in situ hybridization was performed overnight at 65° C. in the presence of a DIG probe of nk×2.5 as a cardiac muscle marker according to a conventional method. After washing, cardiomyocytes were stained by an alkali phosphatase color reaction using an anti-DIG antibody. The stained embryos were washed with PBS, embedded in 75% glycerin/PBS and localized, and then microscopically photographed with incident light. The number of tested individuals was unified with n=80 for each compound.
In addition, the zebrafish embryos injected with the test compound by the above-described method were cultured at 28.5° C. until 48 hours after fertilization, embedded in 3% methyl cellulose/E3, and a moving image was photographed. The number of blood cells pumped in one heartbeat in time-lapse was counted n=15 and compared to Ringer injected individuals.

pancreatic β cells = assay: Test Example 9: pancreatic β cells and insulin in transgenic zebrafish embryos; conditions: vs control; for production amount of insulin by β cells (immunostaining with anti-insulin antibody, average fluorescence intensity): 100 nM or 5 nM, 20 h after injection, n=10; for production amount of insulin by β cells (in situ hybridization, ins probe): 100 nM, 14 h after injection, n=100
Protocol: Transgenic zebrafish expressing pancreatic β-cell GFP
Transgenic zebrafish embryos expressing pancreatic β-cell GFP at 10 hours after fertilization were held with the dorsal side of the head up on a coffin, and a glass capillary was inserted from the dorsal side into a gap just below the midline neural tube at about 2 times the distance between the rostral end and the ear vesicles to the caudal side (pancreatic primordium). A nitrogen gas pressure (15 picosiemens) was applied for 15 to 45 milliseconds, and the test compound was injected. The concentration of the test compound was 100 nM/E3, and 0.025% (final concentration) phenol red was mixed as a tracer of the infusion solution. The injection was performed in pulses with a foot pedal and continued until phenol red was distributed in an elliptical shape with a major axis of 200 μm from the insertion point.
The test compound (100 nM) was injected on a coffin in transgenic zebrafish embryos expressing pancreatic β-cell GFP at 10 hours after fertilization. After injection, embryos were cultured in E3 at 28.5° C. for 14 hours. After chorions were removed with tweezers, the embryos were fixed with 4% paraformaldehyde/PBS at room temperature for 1 hour, and in situ hybridization was performed overnight at 65° C. in the presence of a DIG probe of insulin (ins) according to a conventional method. After washing, β cells were stained by an alkali phosphatase color reaction using an anti-DIG antibody. After staining, the embryos were washed with PBS, embedded in 75% glycerin/PBS and localized, and then microscopically photographed with incident light. The number of test individuals was unified with n=100 for each test compound (FIG. 23).
Transgenic zebrafish embryos expressing pancreatic β-cell GFP at 10 hours after fertilization were injected with the test compound (100 nM or 5 nM) on the coffin. After injection, embryos were cultured in E3 at 28.5° C. for 20 hours in the presence of 0.2 mM phenylthiourea (PTU). After chorions were removed with tweezers, the embryos were fixed with 4% paraformaldehyde/PBS at normal temperature for 1 hour, immunohistochemically reacted with an anti-insulin antibody according to a conventional method, and then reacted with an Alexa fluor 488 anti-mouse IgG secondary antibody. The reacted embryos were washed with PBS, embedded in 75% glycerin/PBS and localized, and then microscopically photographed with 488 nm excitation light (FIG. 24). The number of tested individuals was unified with n=10 for each compound. The insulin amount was quantified by measuring the average fluorescence intensity in a circle with a radius of 100 μm centered on the fluorescence point (FIG. 25).

Purkinje cells = assay: Test Example 6: increase in Purkinje cells of adult mouse after injection into E11.5 fetal ventricle; conditions: test compounds = Compounds 1 to 7; 100 μM injected into E11.5 fetal ventricle, counted in adult mice; vs control; N=10
Protocol: A solution prepared by dissolving 100 μM of the test compound in physiological saline was injected into E11.5 mouse fetal ventricle. Brains of adult mouse individuals were fixed, and slice sections of cerebellar Purkinje cell layers were immunostained with an anti-d-Calbindin antibody, which is a marker of cell bodies and neurites of Purkinje cells. After staining, the number of Purkinje cells was counted, and the average value thereof was calculated.
As a control experiment (control), a similar experiment was performed using physiological saline containing no test compound.
The number of samples is 10 for each of Compounds 1 to 7 and control (N=10).

[1] = system: sox1α, sox2, sox3, and her6; assay: Test Example 1: quantitative PCR of neural stem cell markers in brains of treated zebrafish; conditions: brain of treated zebrafish individuals; ΔΔCt; vs control
Protocol: Moreover, the brains of the treated zebrafish individuals were dissected and washed with sterile distilled water, and then crushed by pipetting or 1 ml syringe suction discharge with 18 G to 24 G needles in 500 μl of Sepasol-RNA I Super G (Nacalai Tesque). A deproteinization operation was conducted once by equivalent phenol/chloroform treatment and once by chloroform treatment, and the supernatant was subjected to RNA purification using an RNA purification column (RNeasy Plus Mini Kit, Qiagen). The elute was reverse-transcribed using a mixed primer of random hexamer and oligo-dT (ReverTra Ace qPCR Kit, TOYOBO) at 37° C. for 15 minutes and 98° C. for 5 minutes, and quantitative PCR of expression levels of sox1α, sox2, sox3, and her6, which are markers of neural stem cells, was performed. Quantitative PCR was performed with SYBER Green Realtime PCR Master Mix (TOYOBO). For the PCR reaction, ABI PRISM 7700 or LightCycler from Roche Diagnostics K.K. was used. Quantification was performed in 3 wells per identical sample (n=3). The obtained data was comparatively quantified by a ΔΔCt method using a normalizer (β-actin, GAPDH, 18S, or the like). In order to confirm that the quantitative reaction was reliable, it was confirmed that the amplification product was in a band by agarose electrophoresis.

[2] = system: mesencephalic neural stem cells; assay: Test Example 7: increase in neural stem cells of adult zebrafish by intracerebroventricular administration; conditions: test compounds = Compounds 1 to 7; 100 μM into ventricle of one-month-old fish, 1 week; E3 Ringer or lipofection; vs control
Protocol: Reporter gene transgenic line of zebrafish specifically expressing green fluorescent protein in mesencephalic neural stem cells
A solution (0.1% DMSO) in which the test compound (100 μM) was dissolved in E3 Ringer (zebrafish physiological saline) was prepared. Mesencephalic neural stem cells were microscopically injected into the ventricles of one-month-old adult fish individuals labeled with green fluorescent protein, and cultured at 28.5° C. for 1 week.
As a control experiment (control), only E3 Ringer (0.1% DMSO plus 0.025% phenol red) was administered into the ventricle in the same volume. […]
Specifically, the solid cultured for 7 days after injection was held in a 3% methylcellulose/E3 Ringer/0.02% tricaine solution on a slide glass, and then GFP was emitted with 488 nm excitation light and imaged by a CCD camera. In addition, the average fluorescence brightness of the green fluorescent protein in a rectangle with a width of 100 μm and a height of 50 μm with the rostral end up around the fluorescence expression part was measured with a brightness analysis software. […]
In order to inhibit synthesis of melanin pigment that interferes with observation with a fluorescence microscope, 0.2 mM phenylthiourea (PTU) had been added to the culture solution.

Row | SMILES | amount of cardiomyocytes (in situ hybridization, nkx2.5) (cardiomyocytes) | production amount of insulin by β cells (immunostaining with anti-insulin antibody, average fluorescence intensity) (pancreatic β cells) | production amount of insulin by β cells (in situ hybridization, ins probe) (pancreatic β cells) | number of Purkinje cells in the cerebellar Purkinje cell layers (Purkinje cells) | expression levels of sox1α, sox2, sox3, and her6 (quantitative PCR) [1] | fluorescence indicating the presence of mesencephalic neural stem cells in the brain of adult zebrafish [2]
1 | Cc1cccc(-c2n[nH]cc2-c2ccnc3ccccc23)n1 [Compound 2, 4-[3-(6-Methylpyridin-2-yl)-1H-pyrazol-4-yl]quinoline] | increase in the amount of cardiomyocytes was observed | significantly increased as compared with the control individual | significantly increased as compared with the control individual | significantly higher than that of the control | significant increase in expression levels | 
2 | O=C(O)CCC(=O)Nc1ccc(Br)cn1 [Compound 5, 4-[(5-Bromopyridin-2-yl)amino]-4-oxobutyric acid] | increase in the amount of cardiomyocytes was observed |  | significantly increased as compared with the control individual | significantly higher than that of the control |  | strongly detected as compared with the control
3 | COc1cc(N2CCC(N(C)C)CC2)ccc1Nc1ncc(Cl)c(Nc2ccccc2P(C)(C)=O)n1 [Compound 6, 5-Chloro-2-N-{4-[4-(dimethylamino)piperidin-1-yl]-2-methoxyphenyl}-4-N-[2-(dimethylphosphoryl)phenyl]pyrimidine-2,4-diamine] |  | significantly increased as compared with the control individual | significantly increased as compared with the control individual |  |  | 
